Measured values from ChEMBL document CHEMBL1201862, “PubChem BioAssay data set” (2004).
Active and inactive are the calls of the source.

Experiments:
Protein RecA = molecular target: T1, Protein RecA (Mycobacterium tuberculosis, UniProt P9WHJ3); experiment: Fluorescence Cell-Free Homogeneous Dose Retest to Identify Inhibitors of RecA-Intein Splicing Activity. [Related pubchem assays (depositor defined):AID2097, AID2223, AID489010, AID492950]; type: functional
T1 sequence (P9WHJ3 whole entry): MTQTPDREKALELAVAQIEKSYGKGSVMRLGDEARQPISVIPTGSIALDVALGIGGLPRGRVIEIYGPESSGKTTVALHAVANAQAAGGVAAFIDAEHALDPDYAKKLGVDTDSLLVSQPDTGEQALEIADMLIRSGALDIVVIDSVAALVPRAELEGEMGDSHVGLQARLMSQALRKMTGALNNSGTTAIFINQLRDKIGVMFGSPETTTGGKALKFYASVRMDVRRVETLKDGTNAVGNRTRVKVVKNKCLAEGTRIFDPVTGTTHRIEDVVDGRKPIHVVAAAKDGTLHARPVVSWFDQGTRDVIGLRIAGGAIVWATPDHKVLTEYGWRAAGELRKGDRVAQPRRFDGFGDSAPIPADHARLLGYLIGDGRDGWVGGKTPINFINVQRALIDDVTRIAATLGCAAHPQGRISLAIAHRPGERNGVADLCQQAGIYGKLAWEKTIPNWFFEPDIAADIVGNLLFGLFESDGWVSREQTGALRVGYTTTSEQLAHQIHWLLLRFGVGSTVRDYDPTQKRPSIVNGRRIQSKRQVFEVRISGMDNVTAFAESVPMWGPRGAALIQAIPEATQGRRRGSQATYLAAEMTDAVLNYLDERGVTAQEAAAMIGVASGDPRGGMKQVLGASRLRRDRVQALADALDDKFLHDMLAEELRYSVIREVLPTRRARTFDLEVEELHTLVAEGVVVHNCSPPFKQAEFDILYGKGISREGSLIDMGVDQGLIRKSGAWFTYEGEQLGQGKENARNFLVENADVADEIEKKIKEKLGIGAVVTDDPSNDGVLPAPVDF

[1] = molecular target: T2, Replicative DNA helicase DnaB (Mycobacterium tuberculosis, UniProt P9WMR3); experiment: DnaB intein splicing inhibitors, dose response, biochemical, cell-free fluorescence (AID 449749); type: functional
T2 sequence (P9WMR3 whole entry): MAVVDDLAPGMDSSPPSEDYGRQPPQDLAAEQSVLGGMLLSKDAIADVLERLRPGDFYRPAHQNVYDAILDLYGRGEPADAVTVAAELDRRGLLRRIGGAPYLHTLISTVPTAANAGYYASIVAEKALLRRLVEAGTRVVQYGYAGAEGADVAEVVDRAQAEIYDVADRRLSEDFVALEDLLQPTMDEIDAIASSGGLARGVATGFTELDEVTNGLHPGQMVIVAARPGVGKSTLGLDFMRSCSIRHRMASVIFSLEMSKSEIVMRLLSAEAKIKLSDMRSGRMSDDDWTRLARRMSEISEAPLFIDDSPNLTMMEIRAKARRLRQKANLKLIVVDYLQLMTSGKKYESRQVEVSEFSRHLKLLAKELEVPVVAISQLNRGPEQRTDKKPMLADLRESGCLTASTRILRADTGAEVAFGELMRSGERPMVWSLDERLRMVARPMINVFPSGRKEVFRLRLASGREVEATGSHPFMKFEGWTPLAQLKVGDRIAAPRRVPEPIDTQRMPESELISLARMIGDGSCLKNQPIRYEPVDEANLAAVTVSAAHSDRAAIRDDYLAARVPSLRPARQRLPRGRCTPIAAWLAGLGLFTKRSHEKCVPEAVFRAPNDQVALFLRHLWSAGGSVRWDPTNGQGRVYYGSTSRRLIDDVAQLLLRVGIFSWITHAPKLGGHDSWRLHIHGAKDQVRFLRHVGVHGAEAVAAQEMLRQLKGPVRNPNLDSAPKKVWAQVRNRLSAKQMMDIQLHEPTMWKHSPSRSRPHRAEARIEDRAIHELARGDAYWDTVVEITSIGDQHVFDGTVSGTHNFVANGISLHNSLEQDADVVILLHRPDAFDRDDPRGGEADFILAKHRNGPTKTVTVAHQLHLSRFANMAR

Protein skinhead-1 = molecular target: T3, Protein skinhead-1 (Caenorhabditis elegans, UniProt P34707); type: functional
T3 sequence (P34707 whole entry): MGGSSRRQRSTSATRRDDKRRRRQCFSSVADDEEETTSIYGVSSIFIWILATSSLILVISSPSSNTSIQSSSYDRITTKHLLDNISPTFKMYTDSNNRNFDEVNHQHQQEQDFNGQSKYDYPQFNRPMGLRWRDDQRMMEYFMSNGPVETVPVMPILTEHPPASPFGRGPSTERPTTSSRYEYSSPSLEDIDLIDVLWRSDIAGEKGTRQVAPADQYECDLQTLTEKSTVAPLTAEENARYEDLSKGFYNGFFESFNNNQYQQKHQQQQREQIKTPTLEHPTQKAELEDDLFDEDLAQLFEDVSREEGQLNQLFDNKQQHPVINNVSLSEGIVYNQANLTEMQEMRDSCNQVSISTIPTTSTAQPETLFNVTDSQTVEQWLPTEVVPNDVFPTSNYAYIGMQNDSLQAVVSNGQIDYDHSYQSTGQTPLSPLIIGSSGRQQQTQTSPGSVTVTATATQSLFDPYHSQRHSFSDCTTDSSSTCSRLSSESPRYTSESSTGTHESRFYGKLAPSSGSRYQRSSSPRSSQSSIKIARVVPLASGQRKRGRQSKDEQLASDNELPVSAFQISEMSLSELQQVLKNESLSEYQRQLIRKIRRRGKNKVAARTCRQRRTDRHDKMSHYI

[2] = molecular target: T4, Rac GTPase-activating protein 1 (Homo sapiens, UniProt Q9H0H5); experiment: MgcRacGAP GTPase-activating activity inhibitors, confirmation, biochemical, ADP Hunter fluorescence, primary and confirmatory (AID 624330); type: functional
T4 sequence (Q9H0H5 whole entry): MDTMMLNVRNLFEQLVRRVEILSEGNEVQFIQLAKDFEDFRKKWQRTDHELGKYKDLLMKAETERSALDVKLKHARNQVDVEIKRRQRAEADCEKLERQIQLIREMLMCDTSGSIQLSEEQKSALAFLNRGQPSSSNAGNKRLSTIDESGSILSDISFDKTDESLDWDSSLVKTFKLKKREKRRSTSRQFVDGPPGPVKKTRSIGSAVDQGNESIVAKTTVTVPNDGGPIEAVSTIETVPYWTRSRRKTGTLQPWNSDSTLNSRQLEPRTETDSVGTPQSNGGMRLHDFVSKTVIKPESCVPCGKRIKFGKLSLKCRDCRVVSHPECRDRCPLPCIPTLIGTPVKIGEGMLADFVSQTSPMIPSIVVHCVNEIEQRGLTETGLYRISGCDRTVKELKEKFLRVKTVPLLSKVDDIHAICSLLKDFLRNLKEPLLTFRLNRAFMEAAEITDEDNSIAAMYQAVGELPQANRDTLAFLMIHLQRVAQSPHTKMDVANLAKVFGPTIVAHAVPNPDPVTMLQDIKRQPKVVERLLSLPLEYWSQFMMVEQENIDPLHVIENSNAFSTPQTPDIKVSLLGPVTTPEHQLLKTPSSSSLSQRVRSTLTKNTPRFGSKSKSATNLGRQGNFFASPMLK

[3] = molecular target: T5, Heat shock factor protein 1 (Mus musculus, UniProt P38532); experiment: HSF1 potentiators in luciferase reporter cells, confirmation, cell-based, NIH3T3, luminescence, dose retest (AID 435004); type: functional;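 also: stress induced by proteasome inhibitor MG132 added 30 min after compound; luciferase reporter driven by HSF1 response element in NIH3T3 cells; actives raise luminescence as potentiators of the MG132 stress response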
T5 sequence (P38532 whole entry): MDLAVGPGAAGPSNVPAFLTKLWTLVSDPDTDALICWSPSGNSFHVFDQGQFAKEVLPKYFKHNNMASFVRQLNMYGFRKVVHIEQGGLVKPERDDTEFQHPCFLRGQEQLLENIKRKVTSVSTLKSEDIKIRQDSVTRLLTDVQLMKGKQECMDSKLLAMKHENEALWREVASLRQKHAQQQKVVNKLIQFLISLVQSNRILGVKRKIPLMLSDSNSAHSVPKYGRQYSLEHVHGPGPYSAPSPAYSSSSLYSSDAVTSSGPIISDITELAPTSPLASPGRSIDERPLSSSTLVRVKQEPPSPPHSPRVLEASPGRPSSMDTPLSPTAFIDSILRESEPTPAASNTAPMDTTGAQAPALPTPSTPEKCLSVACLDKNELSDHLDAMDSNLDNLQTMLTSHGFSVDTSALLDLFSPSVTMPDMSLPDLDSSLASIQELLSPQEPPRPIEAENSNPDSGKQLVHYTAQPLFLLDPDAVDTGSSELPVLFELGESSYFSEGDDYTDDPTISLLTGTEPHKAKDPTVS

[4] = cytotoxicity toward DRD oncogenic fibroblasts, dose response, cell-based, non-viral oncogenic, luminescence (AID 1934); type: functional; conditions: Homo sapiens
INS1 = experiment: beta cell apoptosis inhibitors, cytokine rescue, dose response, luminescence, retest (AID 449756); type: functional, cell-based; conditions: Rattus norvegicus;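 also: cell death triggered by IL-1 beta plus TNF-alpha plus IFN-gamma mixture; protective hits raise ATP signal compared with cytokine alone wells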
BJ [5] = experiment: cytotoxicity toward BJ-TERT fibroblasts, dose response, cell-based, RAS-independent, luminescence (AID 1933); type: functional; conditions: Homo sapiens
BJ [6] = experiment: cytotoxicity toward BJ-TERT-LT-ST fibroblasts, dose response, cell-based, RAS-independent, luminescence (AID 1935); type: functional; conditions: Homo sapiens;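 also: BJ fibroblasts immortalized with TERT plus LT and ST oncogenes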
[7] = molecular target: T6, Corticotropin-releasing factor receptor 2/Corticotropin-releasing factor-binding protein (Homo sapiens, UniProt P24387+Q13324); experiment: activators of CRF receptor 2 with binding protein – uHTS hits, confirmation (AID 602473); type: functional; conditions: read-out: EC50_Mean
T6 sequence (Q13324 whole entry): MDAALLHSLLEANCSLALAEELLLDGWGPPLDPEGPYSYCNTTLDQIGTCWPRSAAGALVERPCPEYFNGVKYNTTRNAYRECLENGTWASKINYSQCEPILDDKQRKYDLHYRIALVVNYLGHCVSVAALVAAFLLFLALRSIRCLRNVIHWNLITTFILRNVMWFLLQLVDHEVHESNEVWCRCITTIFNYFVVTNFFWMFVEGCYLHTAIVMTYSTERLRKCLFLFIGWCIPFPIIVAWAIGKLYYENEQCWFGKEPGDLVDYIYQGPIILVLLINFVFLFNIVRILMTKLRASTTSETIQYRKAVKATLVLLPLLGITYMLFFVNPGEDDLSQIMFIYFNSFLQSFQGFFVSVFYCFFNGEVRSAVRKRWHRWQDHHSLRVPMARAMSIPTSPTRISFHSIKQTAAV
T6 sequence (P24387 whole entry): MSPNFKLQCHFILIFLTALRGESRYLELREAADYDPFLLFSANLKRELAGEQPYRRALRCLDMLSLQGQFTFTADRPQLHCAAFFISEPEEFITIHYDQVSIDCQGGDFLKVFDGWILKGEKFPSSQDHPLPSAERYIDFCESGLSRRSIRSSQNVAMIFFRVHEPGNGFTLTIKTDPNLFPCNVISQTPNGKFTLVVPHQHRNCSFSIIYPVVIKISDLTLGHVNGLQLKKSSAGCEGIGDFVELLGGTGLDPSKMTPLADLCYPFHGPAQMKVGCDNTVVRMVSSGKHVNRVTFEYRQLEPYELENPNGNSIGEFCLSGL

BJ [8] = experiment: cells; type: functional, cell-based; conditions: Homo sapiens
Large T antigen = Large T antigen (Simian virus 40, UniProt P03070); type: functional, Betapolyomavirus macacae;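 also: Confirmatory-stage PubChem screen for compounds that inhibit SV40 T antigen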
Chain of Large T antigen (P03070 whole entry): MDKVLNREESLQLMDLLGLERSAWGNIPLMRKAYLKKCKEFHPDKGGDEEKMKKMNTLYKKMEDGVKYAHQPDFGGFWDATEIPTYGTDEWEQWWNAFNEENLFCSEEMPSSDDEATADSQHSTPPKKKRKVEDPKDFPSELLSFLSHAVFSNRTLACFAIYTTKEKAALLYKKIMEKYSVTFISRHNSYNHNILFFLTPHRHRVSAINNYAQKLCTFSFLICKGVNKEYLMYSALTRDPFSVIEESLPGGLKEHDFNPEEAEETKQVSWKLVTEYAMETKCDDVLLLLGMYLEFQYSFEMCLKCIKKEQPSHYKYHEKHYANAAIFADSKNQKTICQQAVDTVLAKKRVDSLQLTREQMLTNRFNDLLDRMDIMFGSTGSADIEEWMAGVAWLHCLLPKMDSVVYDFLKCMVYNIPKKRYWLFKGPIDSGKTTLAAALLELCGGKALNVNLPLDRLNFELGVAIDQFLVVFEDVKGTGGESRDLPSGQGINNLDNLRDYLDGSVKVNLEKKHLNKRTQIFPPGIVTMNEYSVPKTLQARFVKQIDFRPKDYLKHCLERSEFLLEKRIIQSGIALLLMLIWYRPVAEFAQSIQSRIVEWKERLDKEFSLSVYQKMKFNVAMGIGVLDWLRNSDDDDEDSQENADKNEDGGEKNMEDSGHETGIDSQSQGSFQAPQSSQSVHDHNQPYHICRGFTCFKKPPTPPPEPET

[9] = molecular target: FAD-linked sulfhydryl oxidase ALR (Homo sapiens, UniProt P55789); experiment: inhibitors of human ALR sulfhydryl oxidase, dose response, biochemical, H2O2 detection, luminescence, cherry-pick (AID 493248)
Chain of FAD-linked sulfhydryl oxidase ALR (P55789 whole entry): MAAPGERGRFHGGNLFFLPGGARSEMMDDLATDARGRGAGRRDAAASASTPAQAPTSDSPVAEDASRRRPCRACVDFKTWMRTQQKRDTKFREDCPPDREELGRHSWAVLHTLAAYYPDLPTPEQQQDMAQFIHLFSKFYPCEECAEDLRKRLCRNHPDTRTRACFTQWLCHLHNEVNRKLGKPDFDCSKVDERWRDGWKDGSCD

COc1ccc(OC)c(C(c2c(C)n[nH]c2O)c2c(C)n[nH]c2O)c1
EC50 (Protein RecA): 0.211 µM (active)
AC50 [1]: 0.296 µM (active)

Cc1c(-c2csc(N)n2)c2ccccc2n1C
IC50 (Protein skinhead-1): > 100 µM (inactive)

NC(CSS(=O)(=O)O)=NCCC12CC3CC(CC(O)(C3)C1)C2
IC50 [2]: 142 µM (active)

NSc1nc(N)c2nc(-c3ccccc3)c(-c3ccccc3)nc2n1
IC50 [2]: 99.2 µM (active)

CC(C)(C)NC(=O)C(c1cccs1)N(CC1CCCO1)C(=O)c1ccc(-c2ccccc2)[nH]1 (stereo not given)
EC50 (Protein RecA): 169 µM (active)
AC50 [1]: 37.9 µM (active)

CN(C)c1ccc(NC(=O)c2ccncc2)c2ccccc12
EC50 (Protein RecA): 45.4 µM (active)
AC50 [1]: 66.5 µM (active)

COc1ccc(CN2C(=O)NC(=O)/C(=C\NNC(=O)c3ccccc3O)C2=O)cc1
EC50 (Protein RecA): 32.2 µM (active)
AC50 [1]: 2.69 µM (active)

Cc1nn(-c2cccc(Cl)c2)c2c1C(c1ccncc1)C(C#N)=C(N)O2 (stereo not given)
EC50 [3]: > 260 µM (inactive)
EC50 (Protein RecA): 7.71 µM (active)
AC50 [1]: 9.1 µM (active)

CC(NS(=O)(=O)c1ccc(Cl)cc1)C(=O)OCC(=O)Nc1ccc(N(C)C)cc1 (stereo not given)
IC50 [2]: 65.1 µM (active)

O=C(c1c[nH]c(C(=O)C(Cl)(Cl)Cl)c1)c1ccccc1F
EC50 (Protein RecA): 7.39 µM (active)
AC50 [1]: 12.6 µM (active)

FC(F)(F)c1ccc(-c2csc(-c3ccno3)n2)cc1
IC50 (Protein skinhead-1): 23.1 µM (active)

COc1ccc(NC2CCCN(C(=O)c3ccc(C)c(N4CCNC4=O)c3)C2)cc1 (stereo not given)
IC50 [2]: 129 µM (active)

COc1ccc(CN2CCN(C(=O)CC(C)C)CC2)cc1OC
IC50 [2]: 161 µM (active)

O=C(NC1C(=O)NNC1c1ccccc1)c1ccccc1 (stereo not given)
EC50 [3]: 246 µM (active)
EC50 (Protein RecA): 4.83 µM (active)
AC50 [1]: 8.8 µM (active)

Cc1ccc(CSC(Nc2ccc(F)cc2)=C(C#N)C#N)cc1
EC50 [4]: 76.4 µM (active)
AC50 (INS1): 3.19 µM (active)
EC50 (BJ [5]): 14.1 µM (active)
EC50 (BJ [6]): > 75 µM (not active)
EC50 [7]: > 53 µM (inactive)
EC50 (BJ [8]): > 150 µM (not active)

COC(=O)CCSc1cc(NCCOC(C)=O)c([N+](=O)[O-])c2nonc12
EC50 (Protein RecA): 4.63 µM (active)
AC50 [1]: 37.5 µM (active)

Cc1ccc(C/N=C/c2[nH]c3ccc(Br)c(Cl)c3c2O)cc1
EC50 (Protein RecA): 1.43 µM (active)
AC50 [1]: > 380 µM (inactive)

COc1cc(/C=N/NC(=O)c2nc(C)cc(C)n2)ccc1O
IC50 [2]: 35.3 µM (active)
EC50 [7]: > 53 µM (inactive)
IC50 (Large T antigen): 39.5 µM (active)

O=C(N/N=C/c1ccc(N2CCOCC2)s1)c1ccc(O)cc1
IC50 [2]: 23.5 µM (active)

COc1cc(/C=N/NC(=O)CCn2nnc3ccccc32)ccc1O
AC50 [9]: 0.236 µM (active)
IC50 [2]: 58.7 µM (active)
IC50 (Large T antigen): 8.58 µM (active)
